Measured values: the NIST ThermoML archive (doi:10.1021/je050416y)
± gives the expanded uncertainty stated by the source.

Test: xn = mol fraction of the nth substance listed
Conditions: 101 kPa, Liquid; for mass density: Vibrating tube method

Compound: CC(C)CCO [3-methylbutan-1-ol] + CCO
- mass density (293.15 K, x1 = 0.0268): 790.5 ± 1 kg/m3
- mass density (293.15 K, x1 = 0.0549): 791.3 ± 1 kg/m3
- mass density (293.15 K, x1 = 0.0845): 792.1 ± 1 kg/m3
- mass density (293.15 K, x1 = 0.1156): 792.9 ± 1 kg/m3
- mass density (293.15 K, x1 = 0.1484): 793.8 ± 1 kg/m3
- mass density (293.15 K, x1 = 0.183): 794.7 ± 1 kg/m3
- mass density (293.15 K, x1 = 0.2584): 796.6 ± 1 kg/m3
- mass density (293.15 K, x1 = 0.3433): 798.5 ± 1 kg/m3
- mass density (293.15 K, x1 = 0.4395): 800.4 ± 1 kg/m3
- mass density (293.15 K, x1 = 0.5495): 802.4 ± 1 kg/m3
- mass density (293.15 K, x1 = 0.6765): 804.3 ± 1 kg/m3
- mass density (293.15 K, x1 = 0.8247): 806.3 ± 1 kg/m3
- mass density (293.15 K, x1 = 1): 808.3 ± 1 kg/m3
- kinematic viscosity (293.15 K, x1 = 0.0915): 1.55e-06 ± 7.3e-08 m2/s
- kinematic viscosity (293.15 K, x1 = 0.1753): 1.61e-06 ± 7.6e-08 m2/s
- kinematic viscosity (293.15 K, x1 = 0.2524): 1.68e-06 ± 7.8e-08 m2/s
- kinematic viscosity (293.15 K, x1 = 0.3235): 1.75e-06 ± 8.1e-08 m2/s
- kinematic viscosity (293.15 K, x1 = 0.3894): 1.83e-06 ± 8.5e-08 m2/s
- kinematic viscosity (293.15 K, x1 = 0.4505): 1.93e-06 ± 8.9e-08 m2/s
- kinematic viscosity (293.15 K, x1 = 0.5605): 2.19e-06 ± 1e-07 m2/s
- kinematic viscosity (293.15 K, x1 = 0.6567): 2.51e-06 ± 1.1e-07 m2/s
- kinematic viscosity (293.15 K, x1 = 0.7416): 2.89e-06 ± 1.3e-07 m2/s
- kinematic viscosity (293.15 K, x1 = 0.817): 3.31e-06 ± 1.5e-07 m2/s
- kinematic viscosity (293.15 K, x1 = 0.8844): 3.8e-06 ± 1.7e-07 m2/s
- kinematic viscosity (293.15 K, x1 = 0.9451): 4.35e-06 ± 1.9e-07 m2/s
- kinematic viscosity (293.15 K, x1 = 1): 5e-06 ± 2.2e-07 m2/s
- mass density (298.15 K, x1 = 0.0268): 786.2 ± 1 kg/m3
- mass density (298.15 K, x1 = 0.0549): 787 ± 1 kg/m3
- mass density (298.15 K, x1 = 0.0845): 787.9 ± 1 kg/m3
- mass density (298.15 K, x1 = 0.1156): 788.8 ± 1 kg/m3
- mass density (298.15 K, x1 = 0.1484): 789.7 ± 1 kg/m3
- mass density (298.15 K, x1 = 0.183): 790.6 ± 1 kg/m3
- mass density (298.15 K, x1 = 0.2584): 792.5 ± 1 kg/m3
- mass density (298.15 K, x1 = 0.3433): 794.5 ± 1 kg/m3
- mass density (298.15 K, x1 = 0.4395): 796.5 ± 1 kg/m3
- mass density (298.15 K, x1 = 0.5495): 798.5 ± 1 kg/m3
- mass density (298.15 K, x1 = 0.6765): 800.5 ± 1 kg/m3
- mass density (298.15 K, x1 = 0.8247): 802.6 ± 1 kg/m3
- mass density (298.15 K, x1 = 1): 804.6 ± 1 kg/m3
- kinematic viscosity (298.15 K, x1 = 0.0915): 1.42e-06 ± 6.8e-08 m2/s
- kinematic viscosity (298.15 K, x1 = 0.1753): 1.48e-06 ± 7e-08 m2/s
- kinematic viscosity (298.15 K, x1 = 0.2524): 1.54e-06 ± 7.3e-08 m2/s
- kinematic viscosity (298.15 K, x1 = 0.3235): 1.61e-06 ± 7.5e-08 m2/s
- kinematic viscosity (298.15 K, x1 = 0.3894): 1.69e-06 ± 7.9e-08 m2/s
- kinematic viscosity (298.15 K, x1 = 0.4505): 1.78e-06 ± 8.3e-08 m2/s
- kinematic viscosity (298.15 K, x1 = 0.5605): 2.01e-06 ± 9.2e-08 m2/s
- kinematic viscosity (298.15 K, x1 = 0.6567): 2.28e-06 ± 1e-07 m2/s
- kinematic viscosity (298.15 K, x1 = 0.7416): 2.6e-06 ± 1.2e-07 m2/s
- kinematic viscosity (298.15 K, x1 = 0.817): 2.96e-06 ± 1.3e-07 m2/s
- kinematic viscosity (298.15 K, x1 = 0.8844): 3.37e-06 ± 1.5e-07 m2/s
- kinematic viscosity (298.15 K, x1 = 0.9451): 3.84e-06 ± 1.7e-07 m2/s
- kinematic viscosity (298.15 K, x1 = 1): 4.35e-06 ± 1.9e-07 m2/s
- mass density (303.15 K, x1 = 0.0268): 781.8 ± 1 kg/m3
- mass density (303.15 K, x1 = 0.0549): 782.7 ± 1 kg/m3
- mass density (303.15 K, x1 = 0.0845): 783.7 ± 1 kg/m3
- mass density (303.15 K, x1 = 0.1156): 784.6 ± 1 kg/m3
- mass density (303.15 K, x1 = 0.1484): 785.5 ± 1 kg/m3
- mass density (303.15 K, x1 = 0.183): 786.5 ± 1 kg/m3
- mass density (303.15 K, x1 = 0.2584): 788.5 ± 1 kg/m3
- mass density (303.15 K, x1 = 0.3433): 790.5 ± 1 kg/m3
- mass density (303.15 K, x1 = 0.4395): 792.5 ± 1 kg/m3
- mass density (303.15 K, x1 = 0.5495): 794.6 ± 1 kg/m3
- mass density (303.15 K, x1 = 0.6765): 796.7 ± 1 kg/m3
- mass density (303.15 K, x1 = 0.8247): 798.7 ± 1 kg/m3
- mass density (303.15 K, x1 = 1): 800.8 ± 1 kg/m3
- kinematic viscosity (303.15 K, x1 = 0.0915): 1.27e-06 ± 6.1e-08 m2/s
- kinematic viscosity (303.15 K, x1 = 0.1753): 1.32e-06 ± 6.3e-08 m2/s
- kinematic viscosity (303.15 K, x1 = 0.2524): 1.38e-06 ± 6.6e-08 m2/s
- kinematic viscosity (303.15 K, x1 = 0.3235): 1.45e-06 ± 6.9e-08 m2/s
- kinematic viscosity (303.15 K, x1 = 0.3894): 1.52e-06 ± 7.2e-08 m2/s
- kinematic viscosity (303.15 K, x1 = 0.4505): 1.61e-06 ± 7.5e-08 m2/s
- kinematic viscosity (303.15 K, x1 = 0.5605): 1.81e-06 ± 8.4e-08 m2/s
- kinematic viscosity (303.15 K, x1 = 0.6567): 2.05e-06 ± 9.4e-08 m2/s
- kinematic viscosity (303.15 K, x1 = 0.7416): 2.33e-06 ± 1.1e-07 m2/s
- kinematic viscosity (303.15 K, x1 = 0.817): 2.64e-06 ± 1.2e-07 m2/s
- kinematic viscosity (303.15 K, x1 = 0.8844): 2.99e-06 ± 1.3e-07 m2/s
- kinematic viscosity (303.15 K, x1 = 0.9451): 3.38e-06 ± 1.5e-07 m2/s
- kinematic viscosity (303.15 K, x1 = 1): 3.81e-06 ± 1.7e-07 m2/s
- mass density (308.15 K, x1 = 0.0268): 777.5 ± 1 kg/m3
- mass density (308.15 K, x1 = 0.0549): 778.4 ± 1 kg/m3
- mass density (308.15 K, x1 = 0.0845): 779.4 ± 1 kg/m3
- mass density (308.15 K, x1 = 0.1156): 780.4 ± 1 kg/m3
- mass density (308.15 K, x1 = 0.1484): 781.4 ± 1 kg/m3
- mass density (308.15 K, x1 = 0.183): 782.4 ± 1 kg/m3
- mass density (308.15 K, x1 = 0.2584): 784.4 ± 1 kg/m3
- mass density (308.15 K, x1 = 0.3433): 786.5 ± 1 kg/m3
- mass density (308.15 K, x1 = 0.4395): 788.6 ± 1 kg/m3
- mass density (308.15 K, x1 = 0.5495): 790.7 ± 1 kg/m3
- mass density (308.15 K, x1 = 0.6765): 792.9 ± 1 kg/m3
- mass density (308.15 K, x1 = 0.8247): 795 ± 1 kg/m3
- mass density (308.15 K, x1 = 1): 797.1 ± 1 kg/m3
